The source of these data is patent US9040534B2, “[1,2,4]triazolo[4,3-a]pyrazines as P2X7 modulators” (Janssen Pharmaceutica NV, priority 2013, dated 2015).

A value given as a limit tells only on which side of the number the result lay.

Test [1] deals with T1, P2X7 (Homo sapiens (Human), UniProt Q99572). The test can be described thus: P2X7 antagonism in human PBMCs (LPS + Bz-ATP induced IL-1β release, ELISA). It is filed as cell-based. Conditions: 0.5 mM Bz-ATP; for remaining activity at 10 µM: P2X7, 10 μM compound, human PBMC, read-out: PBMC 10 μM (% control). As for the experimental part: Human blood was collected using a blood donor program. PBMCs were isolated from blood using a Ficoll density gradient technique. Briefly, blood was laid on Ficoll solution and centrifuged at RT for 20 minutes at 2000 rpm. The buffy layer (between red blood cells and plasma) was carefully collected by aspiration, washed with PBS and centrifuged again at 1500 rpm for 15 minutes. The resulting cell pellet was washed and plated on 96 well-plates for experiments. For the Mouse/Human Whole Blood experiments, 150 μl of either mouse or human blood was platted on 96 well-plates. Lipopolysaccharide (LPS) (30 ng/ml) was added to each well and incubated for 1 hour. Test compounds were then added and incubated for 30 minutes. The P2X7 agonist, 2′(3′)-O-(4-benzoylbenzoyl) adenosine 5′-triphosphate (Bz-ATP) was then added at a final concentration of 0.5 mM (PBMC) or 1 mM (blood). Cells were incubated for an additional 1.5 hours. At that point, supernatant was collected and stored for IL-1β assay using manufacturer's protocol for enzyme-linked immunosorbent assay (ELISA). Data was expressed as percent control, where control is defined as the difference in IL-1β release in LPS+Bz-ATP samples and LPS only samples. Data was plotted as response (% control) versus concentration to generate IC50 values. […] In Table 2, when the data cell has been left blank, it is intended to mean that the compound was not tested in that assay.
A general note: An ELISA detects its analyte on a solid surface through an enzyme-linked reagent.

Test [2] deals with T1, P2X7. The test can be described thus: Radioligand binding, human P2X7-1321N1 cell membranes, tritiated A-804598 tracer. Conditions: 1 hour at 4° C. The procedure:
(B) Radioligand binding: human or rat P2X7-1321N1 cells were collected and frozen @ −80° C. On the day of the experiment, cell membrane preparations were made according to standard published methods. […] The compound can be prepared as described in the literature. […] The assay was terminated by filtration (GF/B filters pre-soaked with 0.3% PEI) and washed with washing buffer (Tris-HCl 50 mM). The IC50 generated in the binding assay was corrected for tracer concentration and affinity of the tracer to derive at the affinity (Ki) of the test compounds.

In test [3] the target is T2, rat P2X7 (Rattus norvegicus (Rat), UniProt Q64663). The test can be described thus: Radioligand binding, rat P2X7-1321N1 cell membranes, tritiated A-804598 tracer. Conditions: 1 hour at 4° C. The procedure:
(B) Radioligand binding: human or rat P2X7-1321N1 cells were collected and frozen @ −80° C. On the day of the experiment, cell membrane preparations were made according to standard published methods. The total assay volume was 100 μl:10 μl compound (10×)+(b) 40 μl tracer (2.5×)+50 μl membrane (2×). The tracer used for the assay was tritiated A-804598. The compound can be prepared as described in the literature. (Donnelly-Roberts, D. Neuropharmacology 2009, 56 (1), 223-229.) Compounds, tracer and membranes were incubated for 1 hour @ 4° C. The assay was terminated by filtration (GF/B filters pre-soaked with 0.3% PEI) and washed with washing buffer (Tris-HCl 50 mM). The IC50 generated in the binding assay was corrected for tracer concentration and affinity of the tracer to derive at the affinity (Ki) of the test compounds.

In test [4] the target is T1, P2X7. The test can be described thus: Ca2+ flux (FLIPR) in 1321N1 cells expressing recombinant human P2X7 channel. It is filed as cell-based. Conditions: 250 μM BzATP. The procedure: (§1) (A) Ca^2+ Flux: 1321N1 cells expressing the recombinant human, rat or mouse P2X7 channel was cultured in HyQ DME/(HyClone/Dulbecco's Modified Eagle Medium) high glucose supplemented with 10% Fetal Bovine Serum (FBS) and appropriate selection marker. Cells were seeded at a density of 25000 cells/well (96-well clear bottom black walled plates) in 100 μl volume/well. On the day of the experiment, cell plates were washed with assay buffer, containing (in mM): 130 NaCl, 2 KCl, 1 CaCl2, 1 MgCl2, 10 HEPES, 5 glucose; pH 7.40 and 300 mOs. After the wash, cells were loaded with the Calcium-4 dye (Molecular Device) and incubated in the dark for 60 minutes. Test compounds were prepared at 250× the test concentration in neat DMSO. Intermediate 96-well compound plates were prepared by transferring 1.2 μL of the compound into 300 μL of assay buffer. A further 3× dilution occurred when transferring 50 μL/well of the compound plate to 100 μL/well in the cell plate. Cells were incubated with test compounds and dye for 30 minutes. […] The fluorescence change was measured 180 seconds after adding the agonist.
(In general: Calcium assays in cells follow changes in intracellular calcium, usually with a dye or a luminescent sensor.)

In test [5] the target is T2, rat P2X7. Nature of the test: Ca2+ flux (FLIPR) in 1321N1 cells expressing recombinant rat P2X7 channel. Conditions: 250 μM BzATP. Type of test: cell-based. The procedure:
as §1

T2 sequence (Q64663 whole entry): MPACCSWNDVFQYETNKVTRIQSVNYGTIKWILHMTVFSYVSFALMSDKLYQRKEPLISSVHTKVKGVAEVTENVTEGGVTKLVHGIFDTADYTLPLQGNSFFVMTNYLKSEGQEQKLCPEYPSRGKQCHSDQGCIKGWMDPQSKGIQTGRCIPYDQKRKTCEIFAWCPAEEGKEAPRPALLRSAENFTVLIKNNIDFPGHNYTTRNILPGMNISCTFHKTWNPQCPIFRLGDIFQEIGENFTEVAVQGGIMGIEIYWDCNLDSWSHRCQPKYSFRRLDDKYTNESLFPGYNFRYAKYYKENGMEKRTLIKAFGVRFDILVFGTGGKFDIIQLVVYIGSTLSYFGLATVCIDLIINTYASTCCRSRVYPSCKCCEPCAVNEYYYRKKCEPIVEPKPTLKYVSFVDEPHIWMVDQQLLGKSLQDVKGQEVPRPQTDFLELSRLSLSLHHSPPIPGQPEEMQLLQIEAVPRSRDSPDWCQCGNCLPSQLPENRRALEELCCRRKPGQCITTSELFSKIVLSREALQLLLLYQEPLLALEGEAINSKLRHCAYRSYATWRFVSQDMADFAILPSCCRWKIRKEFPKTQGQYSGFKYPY
T1 sequence (Q99572 whole entry): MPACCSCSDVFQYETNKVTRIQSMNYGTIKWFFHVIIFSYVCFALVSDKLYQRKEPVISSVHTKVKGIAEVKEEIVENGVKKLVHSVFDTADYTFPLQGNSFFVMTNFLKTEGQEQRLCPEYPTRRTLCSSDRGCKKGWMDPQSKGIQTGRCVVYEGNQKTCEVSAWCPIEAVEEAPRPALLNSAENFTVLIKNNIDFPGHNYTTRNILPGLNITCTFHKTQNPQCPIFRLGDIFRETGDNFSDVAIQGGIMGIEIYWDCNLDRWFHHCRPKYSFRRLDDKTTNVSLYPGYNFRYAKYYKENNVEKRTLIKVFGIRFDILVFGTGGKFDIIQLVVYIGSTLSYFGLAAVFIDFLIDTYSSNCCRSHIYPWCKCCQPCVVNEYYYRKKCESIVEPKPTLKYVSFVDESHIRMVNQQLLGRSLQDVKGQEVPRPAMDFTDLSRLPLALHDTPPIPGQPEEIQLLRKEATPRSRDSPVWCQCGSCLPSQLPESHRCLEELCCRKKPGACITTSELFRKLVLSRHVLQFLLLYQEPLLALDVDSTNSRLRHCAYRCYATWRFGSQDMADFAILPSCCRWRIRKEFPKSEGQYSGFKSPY

Consider `O=C1c2nnc(-c3cnccn3)n2C[C@@H](C2CC2)N1Cc1cccc(C(F)(F)F)c1Cl` (single isomer, unassigned) [Example 62], for which the remaining activity at 10 µM in test [1] was 14.1%.
As for `O=C1c2nnc(-c3cnccn3)n2C[C@H](C2CC2)N1Cc1cccc(C(F)(F)F)c1Cl` (single isomer, unassigned) [Example 63], the remaining activity at 10 µM in test [1] turned out to be 27.3%.
Consider `O=C1c2nnc(-c3cnccn3)n2CCN1Cc1cccc(Cl)c1Cl` [Example 2, 7-(2,3-Dichlorobenzyl)-3-pyrazin-2-yl-6,7-dihydro[1,2,4]triazolo[4,3-a]pyrazin-8(5H)-one], for which the “PBMC 1 μM (% control)” value in test [1] (1 μM compound) stood at 50.6 % control.
Usually Ki stands for the dissociation constant of the complex between target and ligand, obtained from inhibition or displacement. The term IC50 denotes the concentration at which inhibition is half-maximal. `C[C@H]1Cn2c(nnc2-c2ccccn2)C(=O)N1Cc1cccc(C(F)(F)F)c1Cl` [Example 18, (6S)-7-[2-Chloro-3-(trifluoromethyl)benzyl]-6-methyl-3-pyridin-2-yl-6,7-dihydro[1,2,4]triazolo[4,3-a]pyrazin-8(5H)-one]: the Ki is 5 nM in test [2] and 2 nM in test [3]. Also, the results for the IC50 in test [4] and in test [5] were < 1 nM and 316 nM, respectively.
On to `C[C@H]1Cn2c(nnc2-c2ncco2)C(=O)N1Cc1cccc(C(F)(F)F)c1Cl` [Example 20, (6S)-7-[2-Chloro-3-(trifluoromethyl)benzyl]-6-methyl-3-(1,3-oxazol-2-yl)-6,7-dihydro[1,2,4]triazolo[4,3-a]pyrazin-8(5H)-one], for which the Ki worked out at 4 nM in test [2] and 5 nM in test [3]. In addition, the IC50 in test [4] worked out at 3.2 nM; in test [5], 2000 nM.
The matching figures for `C[C@H]1Cn2c(nnc2-c2ccn(C)n2)C(=O)N1Cc1cccc(C(F)(F)F)c1Cl` [Example 23, (6S)-7-[2-Chloro-3-(trifluoromethyl)benzyl]-6-methyl-3-(1-methyl-1H-pyrazol-3-yl)-6,7-dihydro[1,2,4]triazolo[4,3-a]pyrazin-8(5H)-one]: 3.2 nM, 3.2 nM, 2.5 nM and 1220 nM.
Consider `Cc1cc(-c2nnc3n2C[C@H](C)N(Cc2cccc(C(F)(F)F)c2Cl)C3=O)n[nH]1` [Example 26, (6S)-7-[2-Chloro-3-(trifluoromethyl)benzyl]-6-methyl-3-(5-methyl-1H-pyrazol-3-yl)-6,7-dihydro[1,2,4]triazolo[4,3-a]pyrazin-8(5H)-one], for which the Ki stood at 3.2 nM in test [2] and 1 nM in test [3]. The results for the IC50 in test [4] and in test [5] were 1.2 nM and 375 nM, respectively.
As to `C[C@H]1Cn2c(nnc2-c2cccnc2)C(=O)N1Cc1cccc(C(F)(F)F)c1Cl` [Example 29, (6S)-7-[2-Chloro-3-(trifluoromethyl)benzyl]-6-methyl-3-pyridin-3-yl-6,7-dihydro[1,2,4]triazolo[4,3-a]pyrazin-8(5H)-one], the values for the Ki in test [2] and in test [3] were 4 nM and 5.6 nM, respectively. Also, the IC50 is 1 nM in test [4] and 122 nM in test [5].
In test [2], `C[C@H]1Cn2c(nnc2-c2ncc(Br)cn2)C(=O)N1Cc1cccc(C(F)(F)F)c1Cl` [Example 42, (6S)-3-(5-Bromopyrimidin-2-yl)-7-[2-chloro-3-(trifluoromethyl)benzyl]-6-methyl-6,7-dihydro[1,2,4]triazolo[4,3-a]pyrazin-8(5H)-one] had a Ki of 7.9 nM. The figures for the IC50 in test [4] and in test [5] were 17.5 nM and > 10000 nM, respectively.
As for `C[C@H]1Cn2c(nnc2-c2cncc(F)c2)C(=O)N1Cc1cccc(C(F)(F)F)c1Cl` [Example 45, (6S)-7-[2-Chloro-3-(trifluoromethyl)benzyl]-3-(5-fluoropyridin-3-yl)-6-methyl-6,7-dihydro[1,2,4]triazolo[4,3-a]pyrazin-8(5H)-one], the Ki in test [2] was 6.3 nM; in test [3], 5 nM. In addition, the values for the IC50 in test [4] and in test [5] were 100 nM and 12600 nM, respectively.
In the case of `Cc1cccc(-c2nnc3n2C[C@H](C)N(Cc2cccc(C(F)(F)F)c2Cl)C3=O)n1` [Example 46, (6S)-7-[2-Chloro-3-(trifluoromethyl)benzyl]-6-methyl-3-(6-methylpyridin-2-yl)-6,7-dihydro[1,2,4]triazolo[4,3-a]pyrazin-8(5H)-one], the Ki in test [2] is 12.6 nM. The IC50 was 3.3 nM in test [4] and 154 nM in test [5].
For `Cc1ncccc1-c1nnc2n1C[C@H](C)N(Cc1cccc(C(F)(F)F)c1Cl)C2=O` [Example 48, (6S)-7-[2-Chloro-3-(trifluoromethyl)benzyl]-6-methyl-3-(2-methylpyridin-3-yl)-6,7-dihydro[1,2,4]triazolo[4,3-a]pyrazin-8(5H)-one], the inhibition constant (Ki) in test [2] stood at 12.6 nM. Further, the results for the IC50 in test [4] and in test [5] were 13.2 nM and 543 nM, respectively.
In the same order, the values of `C[C@H]1Cn2c(nnc2C2CCCNC2)C(=O)N1Cc1cccc(C(F)(F)F)c1Cl` (stereo partly drawn) [Example 60, (6S)-7-[2-Chloro-3-(trifluoromethyl)benzyl]-6-methyl-3-piperidin-3-yl-6,7-dihydro[1,2,4]triazolo[4,3-a]pyrazin-8(5H)-one] are 631 nM, > 10000 nM and > 10000 nM.
Molecule `CC[C@H]1Cn2c(nnc2-c2cnccn2)C(=O)N1Cc1cccc(C(F)(F)F)c1Cl` [Example 71, (6S)-7-[2-Chloro-3-(trifluoromethyl)benzyl]-6-ethyl-3-pyrazin-2-yl-6,7-dihydro[1,2,4]triazolo[4,3-a]pyrazin-8(5H)-one] had a Ki in test [2] of 1.3 nM. In addition, the results for the IC50 in test [4] and in test [5] were 0.3 nM and 10.3 nM, respectively.
The molecule `CC[C@H]1Cn2c(nnc2-c2cc[nH]n2)C(=O)N1Cc1cccc(C(F)(F)F)c1Cl` [Example 74, (6S)-7-[2-Chloro-3-(trifluoromethyl)benzyl]-6-ethyl-3-(1H-pyrazol-3-yl)-6,7-dihydro[1,2,4]triazolo[4,3-a]pyrazin-8(5H)-one] came in with a Ki in test [2] of 10 nM. Besides, the IC50 in test [4] came to 1.5 nM; in test [5], 5.1 nM.
For the molecule `CC[C@H]1Cn2c(nnc2-c2ccc(F)cn2)C(=O)N1Cc1cccc(C(F)(F)F)c1Cl` [Example 76, (6S)-7-[2-Chloro-3-(trifluoromethyl)benzyl]-6-ethyl-3-(5-fluoropyridin-2-yl)-6,7-dihydro[1,2,4]triazolo[4,3-a]pyrazin-8(5H)-one], the inhibitory constant (Ki) in test [2] worked out at 2.5 nM; in test [3] it was 1.6 nM. In addition, the IC50 was < 1 nM in test [4] and 158 nM in test [5].
`Cc1cccc(C)c1CN1C(=O)c2nnc(-c3cnccn3)n2C[C@@H]1C` [Example 87, (6S)-7-(2,6-Dimethylbenzyl)-6-methyl-3-pyrazin-2-yl-6,7-dihydro[1,2,4]triazolo[4,3-a]pyrazin-8(5H)-one] had a Ki in test [2] of 31.6 nM. In addition, the IC50 amounted to 42.5 nM in test [4] and 1560 nM in test [5].
On to `C[C@H]1Cn2c(nnc2-c2cnccn2)C(=O)N1Cc1cccc(C(F)(F)F)c1` [Example 88, (6S)-6-Methyl-3-pyrazin-2-yl-7-[3-(trifluoromethyl)benzyl]-6,7-dihydro[1,2,4]triazolo[4,3-a]pyrazin-8(5H)-one], for which, in test [2], the Ki came to 5 nM. For the same molecule, the IC50 in test [4] stood at 4 nM; in test [5] it was 6040 nM.
